From ChEMBL document CHEMBL5316327, “Design and Synthesis of Orally Active Quinolyl Pyrazinamides as Sigma 2 Receptor Ligands for the Treatment of Pancreatic Cancer” (J Med Chem, 2023)
The source made the active and inactive calls. The rule behind the calls is not given here.

Tests used:
[1] = molecular target: Alpha-2A adrenergic receptor (Homo sapiens, UniProt P08913); experiment: Binding affinity to alpha2A receptor (unknown origin) assessed as inhibition constant
[2] = tested on: MIA PaCa-2; experiment: Synergistic cytotoxicity against human MIA PaCa-2 cells at upto 1 uM measured after 7 days in presence of ammonium tetrathiomolybdate by crystal violet staining based analysis; assay type: functional, cell-based; details: time 7.0 day
[3] = molecular target: 5-hydroxytryptamine receptor 2B (Homo sapiens, UniProt P41595); experiment: Binding affinity to 5-HT2B receptor (unknown origin) assessed as inhibition constant
Sequence of 5-hydroxytryptamine receptor 2B (P41595 whole entry): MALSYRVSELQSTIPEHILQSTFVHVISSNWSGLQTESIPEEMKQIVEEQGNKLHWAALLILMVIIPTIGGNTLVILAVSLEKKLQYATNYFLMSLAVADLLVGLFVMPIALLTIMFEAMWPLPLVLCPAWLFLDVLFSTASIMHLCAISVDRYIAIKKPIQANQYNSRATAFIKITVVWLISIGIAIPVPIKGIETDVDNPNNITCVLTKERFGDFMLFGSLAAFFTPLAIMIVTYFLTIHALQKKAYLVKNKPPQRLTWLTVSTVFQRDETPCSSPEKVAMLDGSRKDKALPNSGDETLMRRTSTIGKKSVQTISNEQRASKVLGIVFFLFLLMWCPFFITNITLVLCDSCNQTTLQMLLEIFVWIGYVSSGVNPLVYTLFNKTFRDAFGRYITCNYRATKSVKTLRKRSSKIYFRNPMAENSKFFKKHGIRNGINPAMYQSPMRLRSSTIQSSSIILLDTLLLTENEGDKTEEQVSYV

[4] = tested on: HCT-116; experiment: Induction of cell cycle arrest in human HCT-116 cells assessed as accumulation of cells in G0/G1 phase at 10 uM measured after 24 hrs by propidium iodide staining-based flow cytometric analysis (reference value: 43%); assay type: functional
[5] = tested on: HCT-116; experiment: Induction of cell cycle arrest in human HCT-116 cells assessed as accumulation of cells in G0/G1 phase at […] measured after 24 hrs by propidium iodide staining-based flow cytometric analysis (reference value: 43%); assay type: functional; details: dose 2.5 µM
[6] = tested on: MIA PaCa-2; experiment: Induction of cell cycle arrest in human MIA PaCa-2 cells assessed as accumulation of cells in G2/M phase at […] measured after 24 hrs by propidium iodide staining-based flow cytometric analysis (reference value: 16%); assay type: functional; details: dose 2.5 µM
[7] = tested on: HCT-116; experiment: Induction of apoptosis in human HCT-116 cells assessed as necrotic cells at 1.0 uM measured after 48 hrs by Annexin V-Alexa Fluor 488/propidium iodide staining based flow cytometry (reference value: 9.06%); assay type: functional
[8] = tested on: MIA PaCa-2; experiment: Synergistic cytotoxicity against human MIA PaCa-2 cells at upto 1 uM measured after 7 days in presence of copper chloride by crystal violet staining based analysis; assay type: functional, cell-based; details: time 7.0 day
[9] = tested on: MIA PaCa-2; experiment: Induction of cell cycle arrest in human MIA PaCa-2 cells assessed as accumulation of cells in G2/M phase at 5 uM measured after 24 hrs by propidium iodide staining-based flow cytometric analysis (reference value: 16%); assay type: functional
[10] = tested on: HCT-116; experiment: Induction of cell cycle arrest in human HCT-116 cells assessed as accumulation of cells in G0/G1 phase at 1 uM measured after 24 hrs by propidium iodide staining-based flow cytometric analysis (reference value: 43%); assay type: functional
[11] = AUC (0 to infinity) in CD-1 mouse plasma at 20 mg/kg, po; assay type: ADME, organism-based; parameters: dose 20 mg/kg, route po
[12] = molecular target: D(1B) dopamine receptor (Homo sapiens, UniProt P21918); experiment: Binding affinity to dopamine D5 receptor (unknown origin) assessed as inhibition constant
Sequence of D(1B) dopamine receptor (P21918 whole entry): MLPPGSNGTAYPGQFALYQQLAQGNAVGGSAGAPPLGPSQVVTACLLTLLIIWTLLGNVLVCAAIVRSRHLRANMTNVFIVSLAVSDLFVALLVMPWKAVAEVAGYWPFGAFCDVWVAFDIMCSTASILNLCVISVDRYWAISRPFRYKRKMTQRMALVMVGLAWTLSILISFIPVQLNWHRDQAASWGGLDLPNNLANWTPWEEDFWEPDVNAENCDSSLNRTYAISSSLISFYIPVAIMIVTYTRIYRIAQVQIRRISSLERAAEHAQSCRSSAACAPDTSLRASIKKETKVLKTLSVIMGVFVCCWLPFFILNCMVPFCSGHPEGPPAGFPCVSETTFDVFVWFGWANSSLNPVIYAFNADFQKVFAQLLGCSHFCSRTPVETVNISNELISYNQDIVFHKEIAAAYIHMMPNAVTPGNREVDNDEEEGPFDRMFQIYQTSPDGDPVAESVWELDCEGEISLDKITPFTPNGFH

[13] = tested on: BXPC-3; experiment: cells; details: Homo sapiens, BXPC-3, 72 h
[14] = tested on: MIA PaCa-2; experiment: Synergistic ferroptosis activity in human MIA-PaCa-2 cells at upto 1 uM measured after 7 days in presence of erastin by crystal violet staining based analysis; assay type: functional, cell-based; details: time 7.0 day
[15] = tested on: MIA PaCa-2; experiment: Induction of apoptosis in human MIA PaCa-2 cells assessed as viable cells at 5.0 uM measured after 48 hrs by Annexin V-Alexa Fluor 488/propidium iodide staining based flow cytometry (reference value: 82.23%); assay type: functional; details: read-out: Activity
[16] = tested on: MIA PaCa-2; experiment: Induction of apoptosis in human MIA PaCa-2 cells assessed as necrotic cells at […] measured after 48 hrs by Annexin V-Alexa Fluor 488/propidium iodide staining based flow cytometry (reference value: 7.03%); assay type: functional; details: dose 2.5 µM
[17] = Toxicity in C57BL/6 mouse assessed as effect on body weight at 30 mg/kg, po administered for 32 days and measured on day 1 to 3,5,6,8 to 32 in presence of copper sulfate; assay type: organism-based; details: in vivo, 768 h, time 32 day
[18] = molecular target: Histamine H2 receptor (Homo sapiens, UniProt P25021); experiment: Binding affinity to histamine H2 receptor (unknown origin) assessed as inhibition constant
Sequence of Histamine H2 receptor (P25021 whole entry): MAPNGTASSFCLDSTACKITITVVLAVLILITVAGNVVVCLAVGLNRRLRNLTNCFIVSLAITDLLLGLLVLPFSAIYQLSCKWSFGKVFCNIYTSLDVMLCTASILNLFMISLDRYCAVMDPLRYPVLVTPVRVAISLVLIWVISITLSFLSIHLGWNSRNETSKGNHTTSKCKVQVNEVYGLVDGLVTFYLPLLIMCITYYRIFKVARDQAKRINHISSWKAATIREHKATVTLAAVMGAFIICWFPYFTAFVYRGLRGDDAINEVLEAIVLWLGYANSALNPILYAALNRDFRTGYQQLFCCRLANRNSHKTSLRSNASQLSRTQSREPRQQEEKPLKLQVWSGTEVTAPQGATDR

[19] = tested on: MIA PaCa-2; experiment: Synergistic cytotoxicity in human MIA PaCa-2 cells at upto 1 uM measured after 7 days in presence of cisplatin by crystal violet staining based analysis; assay type: functional, cell-based; details: time 7.0 day
[20] = Metabolic stability in human liver microsomes assessed as half life at 10 uM measured upto 60 mins in presence of NADPH by LC-MS/MS analysis; assay type: ADME, Microsome; details: liver microsomes
[21] = molecular target: D(1A) dopamine receptor (Homo sapiens, UniProt P21728); experiment: Binding affinity to dopamine D1 receptor (unknown origin) assessed as inhibition constant
Sequence of D(1A) dopamine receptor (P21728 whole entry): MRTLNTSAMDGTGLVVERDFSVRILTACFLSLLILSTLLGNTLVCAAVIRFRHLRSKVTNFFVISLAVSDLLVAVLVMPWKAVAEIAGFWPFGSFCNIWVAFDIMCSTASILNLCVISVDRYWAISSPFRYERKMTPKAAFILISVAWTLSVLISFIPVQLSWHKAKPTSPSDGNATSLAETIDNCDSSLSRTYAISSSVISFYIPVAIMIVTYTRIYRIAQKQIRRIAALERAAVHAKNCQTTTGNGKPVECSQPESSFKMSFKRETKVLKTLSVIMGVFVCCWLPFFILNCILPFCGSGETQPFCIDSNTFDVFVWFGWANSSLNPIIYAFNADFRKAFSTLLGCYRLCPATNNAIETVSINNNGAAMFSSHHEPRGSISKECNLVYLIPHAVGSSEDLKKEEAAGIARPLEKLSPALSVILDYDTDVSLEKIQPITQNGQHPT

[22] = Oral bioavailability in CD-1 mouse plasma at 20 mg/kg; assay type: ADME, organism-based; details: in vivo
[23] = tested on: HCT-116; experiment: Induction of cell cycle arrest in human HCT-116 cells assessed as accumulation of cells in S phase at 10 uM measured after 24 hrs by propidium iodide staining-based flow cytometric analysis (reference value: 47%); assay type: functional
[24] = Half life in CD-1 mouse plasma at 10 mg/kg, iv; assay type: ADME, organism-based
[25] = tested on: MIA PaCa-2; experiment: Induction of apoptosis in human MIA PaCa-2 cells assessed as late apoptotic cells at […] measured after 48 hrs by Annexin V-Alexa Fluor 488/propidium iodide staining based flow cytometry (reference value: 6.63%); assay type: functional; details: dose 2.5 µM
[26] = tested on: MIA PaCa-2; experiment: Additive ferroptosis activity in human MIA-PaCa-2 cells at upto 1 uM measured after 7 days in presence of ferrostatin-1 by crystal violet staining based analysis; assay type: functional, cell-based; details: time 7.0 day
[27] = tested on: MIA PaCa-2; experiment: Synergistic cytotoxicity in human MIA PaCa-2 cells at upto 1 uM measured after 7 days in presence of SC144 by crystal violet staining based analysis; assay type: functional, cell-based; details: time 7.0 day
[28] = molecular target: Beta-1 adrenergic receptor (Homo sapiens, UniProt P08588); experiment: Binding affinity to beta1 receptor (unknown origin) assessed as inhibition constant
Sequence of Beta-1 adrenergic receptor (P08588 whole entry): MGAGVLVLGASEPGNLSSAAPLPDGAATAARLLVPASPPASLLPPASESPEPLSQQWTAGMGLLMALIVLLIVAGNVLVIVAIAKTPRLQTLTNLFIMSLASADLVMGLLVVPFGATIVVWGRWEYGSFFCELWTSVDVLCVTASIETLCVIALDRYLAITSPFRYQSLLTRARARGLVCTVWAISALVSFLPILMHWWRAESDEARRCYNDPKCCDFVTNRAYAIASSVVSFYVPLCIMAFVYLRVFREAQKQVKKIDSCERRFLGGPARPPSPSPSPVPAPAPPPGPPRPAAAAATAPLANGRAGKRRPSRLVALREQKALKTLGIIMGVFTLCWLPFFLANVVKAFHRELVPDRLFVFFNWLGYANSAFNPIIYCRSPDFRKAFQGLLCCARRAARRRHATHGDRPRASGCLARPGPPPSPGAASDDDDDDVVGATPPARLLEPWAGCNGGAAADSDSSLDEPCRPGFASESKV

[29] = tested on: MIA PaCa-2; experiment: Synergistic ferroptosis activity in human MIA-PaCa-2 cells at upto 1 uM measured after 7 days in presence of FIN56 by crystal violet staining based analysis; assay type: functional, cell-based; details: time 7.0 day
[30] = tested on: MIA PaCa-2; experiment: Induction of apoptosis in human MIA PaCa-2 cells assessed as viable cells at 1.0 uM measured after 48 hrs by Annexin V-Alexa Fluor 488/propidium iodide staining based flow cytometry (reference value: 82.23%); assay type: functional; details: read-out: Activity
[31] = tested on: MIA PaCa-2; experiment: Induction of cell cycle arrest in human MIA PaCa-2 cells assessed as accumulation of cells in S phase at 10 uM measured after 24 hrs by propidium iodide staining-based flow cytometric analysis (reference value: 31%); assay type: functional
[32] = tested on: HCT-116; experiment: Induction of apoptosis in human HCT-116 cells assessed as late apoptotic cells at 1.0 uM measured after 48 hrs by Annexin V-Alexa Fluor 488/propidium iodide staining based flow cytometry (reference value: 8.48%); assay type: functional
[33] = Cytotoxicity against HFF-1 cells measured after 72 hrs by MTT assay; assay type: toxicity, cell-based; details: human
[34] = tested on: HCT-116; experiment: Induction of apoptosis in human HCT-116 cells assessed as necrotic cells at […] measured after 48 hrs by Annexin V-Alexa Fluor 488/propidium iodide staining based flow cytometry (reference value: 9.06%); assay type: functional; details: dose 2.5 µM
[35] = tested on: MIA PaCa-2; experiment: Induction of cell cycle arrest in human MIA PaCa-2 cells assessed as accumulation of cells in S phase at […] measured after 24 hrs by propidium iodide staining-based flow cytometric analysis (reference value: 31%); assay type: functional; details: dose 2.5 µM
[36] = molecular target: 5-hydroxytryptamine receptor 2C (Homo sapiens, UniProt P28335); experiment: Binding affinity to 5-HT2C receptor (unknown origin) assessed as inhibition constant
Sequence of 5-hydroxytryptamine receptor 2C (P28335 whole entry): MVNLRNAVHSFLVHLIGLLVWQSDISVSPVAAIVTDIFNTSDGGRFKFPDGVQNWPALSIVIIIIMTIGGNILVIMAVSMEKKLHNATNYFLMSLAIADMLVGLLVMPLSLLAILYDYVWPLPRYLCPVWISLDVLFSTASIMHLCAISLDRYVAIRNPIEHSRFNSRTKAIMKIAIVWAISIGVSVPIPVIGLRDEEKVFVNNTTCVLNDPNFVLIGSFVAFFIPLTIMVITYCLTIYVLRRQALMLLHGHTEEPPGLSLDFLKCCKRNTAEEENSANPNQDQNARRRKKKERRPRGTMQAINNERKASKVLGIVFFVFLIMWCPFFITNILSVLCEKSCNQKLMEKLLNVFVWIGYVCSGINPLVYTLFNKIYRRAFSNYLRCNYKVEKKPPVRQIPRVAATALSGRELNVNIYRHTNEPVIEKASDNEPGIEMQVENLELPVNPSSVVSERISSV

[37] = tested on: MIA PaCa-2; experiment: Induction of cell cycle arrest in human MIA PaCa-2 cells assessed as accumulation of cells in S phase at 1 uM measured after 24 hrs by propidium iodide staining-based flow cytometric analysis (reference value: 31%); assay type: functional

Sequence of Alpha-2A adrenergic receptor (P08913 whole entry): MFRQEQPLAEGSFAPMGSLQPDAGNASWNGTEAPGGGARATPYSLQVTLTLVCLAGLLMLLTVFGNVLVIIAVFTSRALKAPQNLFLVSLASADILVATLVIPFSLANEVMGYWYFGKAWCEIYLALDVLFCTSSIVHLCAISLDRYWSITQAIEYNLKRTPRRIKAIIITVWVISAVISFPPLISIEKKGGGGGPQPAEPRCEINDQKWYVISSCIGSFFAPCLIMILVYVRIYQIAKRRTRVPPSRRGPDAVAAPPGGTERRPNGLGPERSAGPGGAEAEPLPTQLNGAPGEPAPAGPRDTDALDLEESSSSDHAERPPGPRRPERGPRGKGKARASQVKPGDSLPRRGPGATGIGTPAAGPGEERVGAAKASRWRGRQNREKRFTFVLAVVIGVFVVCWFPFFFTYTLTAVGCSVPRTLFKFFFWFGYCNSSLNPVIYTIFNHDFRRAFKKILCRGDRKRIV

Ki [1]: 2740 nM
Ki [3]: 427 nM
AUC(0-inf) [11]: 3390 ng·h/mL
Ki [12]: 1550 nM
IC50 [13]: 5800 nM
Ki [18]: 91100 nM
half-life at 10 µM [20]: > 1 h
Ki [21]: 1440 nM
F [22]: 60%
half-life [24]: 4.7 h
Ki [28]: 6350 nM
Ki [36]: 471 nM
Structure (SMILES): CCN(CC)CCCC(C)Nc1cnc(C(=O)Nc2ccc(Cl)c3cccnc23)cn1 (configuration not stated)
Activity [2]: inactive
Activity [4]: 57%
Activity [5]: 48%
Activity [6]: 16%
Activity [7]: 9.72%
Activity [8]: Active
Activity [9]: 17%
Activity [10]: 41%
Activity [14]: Active
viability at 5 µM [15]: 32.4%
Activity [16]: 5.91%
Activity [17]: Non-Toxic
Activity [19]: inactive
Activity [23]: 20%
Activity [25]: 25.72%
Activity [26]: Active
Activity [27]: inactive
Activity [29]: Active
viability at 1 µM [30]: 54.6%
Activity [31]: 14%
Activity [32]: 9.6%
IC50 at 72 h [33]: 8000 nM
Activity [34]: 2.87%
Activity [35]: 35%
Activity [37]: 40%
